Results taken from patent US4495196A, “Antiinflammatory 4,5-diaryl-α-polyfluoroalkyl-1H-pyrrole-2-methanols and method for use thereof” (E. I. Du Pont de Nemours and Company, priority 1981, dated 1985).
Read-outs that look alike come from different tables or passages of the source.

Assays:
[1] = tested on: phenylquinone-induced writhing in mice; assay: Phenylquinone Writhing Test; format: in vivo, female white mice; conditions: mouse; oral; effective analgesic dose for 50% of the mice; observed 10 minutes from 30 minutes after dosing
Method: Phenylquinone Writhing Test
The phenylquinone writhing test, modified from Siegmund, et al., Proc. Soc. […] A test compound suspended in 1% methylcellulose was given orally to fasted (17-21 hours) female white mice, 5-20 animals per double blind test. Aqueous (0.01% phenyl-p-benzoquinone) phenylquinone was injected intraperitoneally at 24 minutes later using 0.20 ml per mouse.

[2] = tested on: adjuvant-induced arthritis in rats; assay: Established Adjuvant-Induced Arthritis in Rats; format: in vivo, Lewis (Wistar) male rats; conditions: for ED50: 504 h, read-out: Adjuvant Arthritis ED50
[3] = rat, oral gavage once daily for 7 days (days 14-20), ED50% for decrease from control paw volume, estimated by inspection, day 21
[4] = 168 h, rat, oral once daily for 7 days, read-out: percent reduction in paw volume at the indicated dose

Compound | ED50 [1] [mg/kg] | ED50 [2, 3] [mg/kg] | other results
OC(c1cc(-c2ccc(F)cc2)c(-c2ccc(F)cc2)[nH]1)(C(F)(F)Cl)C(F)(Cl)Cl (centres unmarked) [Example 22] | > 108 |  | ED50 ([2]; Rattus norvegicus, po): 7 mg/kg
OC(c1cc(-c2ccccc2)c(-c2cccnc2)[nH]1)(C(F)(F)F)C(F)(F)F [Example 7] | 78 |  | inhibition in vivo at 18 mg/kg ([2]; 168 h, rat, oral once daily for 7 days, dose 18 mg/kg, read-out: percent reduction in paw volume at the indicated dose): 31%
OC1(c2cc(-c3ccc(F)cc3)c(-c3ccc(F)cc3)[nH]2)C(F)(F)C(F)(F)C1(F)Cl (centres unmarked) [Example 20] | > 108 | 4.5 | 
OC(c1cc(-c2ccc(F)cc2)c(-c2ccc(F)cc2)[nH]1)(C(F)F)C(F)(F)F (centres unmarked) [Example 18] | > 108 | 4 | 
OC(c1cc(-c2ccc(F)cc2)c(-c2ccc(F)cc2)[nH]1)C(F)(F)C(F)(F)F (centres unmarked) [Example 37] | 103 | 2.9 | 
Fc1ccc(-c2cc(C(OCc3ccccc3)(C(F)(F)F)C(F)(F)F)[nH]c2-c2ccc(F)cc2)cc1 [Example 33, 2,3-Bis(4-fluorophenyl)-5-[2,2,2-trifluoro-1-(phenylmethoxy)-1-(trifluoromethyl)ethyl]-1H-pyrrole] |  |  | inhibition in vivo at 25 mg/kg [2, 4]: 35%
OC(c1cc(-c2ccc(F)cc2)c(-c2cccnc2)[nH]1)(C(F)(F)F)C(F)(F)F [Example 11] | > 108 |  | inhibition in vivo at 15 mg/kg ([2]; 168 h, rat, oral once daily for 7 days, dose 15 mg/kg, read-out: percent reduction in paw volume at the indicated dose): 47%
OC(c1cc(-c2ccc(F)cc2)c(-c2ccc(Br)cc2)[nH]1)(C(F)(F)F)C(F)(F)F [Example 5] | > 135 | 6 | 
OC(c1cc(-c2ccccc2)c(-c2ccccc2)[nH]1)(C(F)(F)F)C(F)(F)F [Example 2] | 135 |  | inhibition in vivo at 81 mg/kg ([2]; 168 h, rat, oral once daily for 7 days, dose 81 mg/kg, read-out: percent reduction in paw volume at the indicated dose): 42%
OC(c1cc(-c2ccc(F)cc2)c(-c2ccc(F)cc2)[nH]1)(C(F)(F)Cl)C(F)(F)Cl [Example 17] | > 108 | 6.5 | 
Cc1ccc(-c2cc(C(O)(C(F)(F)F)C(F)(F)F)[nH]c2-c2ccc(C)cc2)cc1 [Example 9] | > 108 | 8 | 
CC(O)(c1cc(-c2ccc(F)cc2)c(-c2ccc(F)cc2)[nH]1)C(F)(F)C(F)(F)F (centres unmarked) [Example 38] | > 108 | 3.1 | 
Cc1c(C(O)(C(F)(F)F)C(F)(F)F)[nH]c(-c2ccc(F)cc2)c1-c1ccc(F)cc1 [Example 6] | > 135 | 2.8 | 
COc1ccc(-c2cc(C(O)(C(F)(F)F)C(F)(F)F)[nH]c2-c2ccc(OC)cc2)cc1 [Example 8] | 5.2 | 4 | 
OC(c1cc(-c2ccc(F)cc2)c(-c2ccc(F)cc2)[nH]1)(C(F)(F)F)C(F)(F)Cl (centres unmarked) [Example 19] | > 108 | 2 | 
OC1(c2cc(-c3ccc(F)cc3)c(-c3ccc(F)cc3)[nH]2)C(F)(F)C(F)(F)C1(F)F [Example 16] | > 108 |  | ED50 ([2]; Rattus norvegicus, po): 1.3 mg/kg
CSc1ccc(-c2[nH]c(C(O)(C(F)(F)F)C(F)(F)F)cc2-c2ccc(F)cc2)cc1 [Example 12] | > 108 | 9 | 

Compound | ED50 [1] [mg/kg] | ED50 [2, 3] [mg/kg] | other results
CC(=O)OC(c1cc(-c2ccc(F)cc2)c(-c2ccc(F)cc2)n1C)(C(F)(F)F)C(F)(F)F [Example 34, 4,5-Bis(4-fluorophenyl)-1-methyl-α,α-bis(trifluoromethyl)-1H-pyrrole-2-methanol, Acetate] | > 108 | 2.5 | 
OC(c1cc(-c2ccc(F)cc2)c(-c2ccc(F)cc2)[nH]1)C(F)(F)C(F)(F)C(F)(F)F (centres unmarked) [Example 49] | > 108 |  | ED50 ([2]; Rattus norvegicus, po): 7 mg/kg
CC(O)(c1cc(-c2ccc(F)cc2)c(-c2ccc(F)cc2)[nH]1)C(F)(F)F (centres unmarked) [Example 50] | > 108 |  | inhibition in vivo at 9 mg/kg ([2]; 168 h, rat, oral once daily for 7 days, dose 9 mg/kg, read-out: percent reduction in paw volume at the indicated dose): 47%
COC(c1cc(-c2ccc(F)cc2)c(-c2ccc(F)cc2)n1C)(C(F)(F)F)C(F)(F)F [Example 32, 2,3-Bis(4-fluorophenyl)-1-methyl-5-[2,2,2-trifluoro-1-methoxy-1-(trifluoromethyl)ethyl]-1H-pyrrole] | > 108 | 5.5 | 
OC1(c2cc(-c3ccc(F)cc3)c(-c3ccc(F)cc3)[nH]2)C(F)(F)C(F)(F)C1(F)Br (centres unmarked) [Example 21] | > 108 | 20 | 
CN(C)c1ccc(-c2[nH]c(C(O)(C(F)(F)F)C(F)(F)F)cc2-c2ccc(F)cc2)cc1 [Example 10, 4-(4-fluorophenyl)-5-(4-dimethylaminophenyl)-α,α-bis(trifluoromethyl)-1H-pyrrole-2-methanol] | > 108 | 2.2 | 
OC(c1cc(-c2ccc(F)cc2)c(-c2ccc(F)cc2)[nH]1)(C(F)(F)F)C(F)(F)F [Example 3, 4,5-bis(4-fluorophenyl)-α,α-bis(trifluoromethyl)-1H-pyrrole-2-methanol] | > 108 | 3.5 | 
OC(c1cc(-c2ccccc2)c(-c2ccc(Cl)c(Cl)c2)[nH]1)(C(F)(F)F)C(F)(F)F [Example 4] | > 108 | 70 | 
Cn1c(C(O)(C(F)(F)F)C(F)(F)F)cc(-c2ccc(F)cc2)c1-c1ccc(F)cc1 [Example 28, 4,5-Bis(4-fluorophenyl)-1-methyl-α,α-bis(trifluoromethyl)-1H-pyrrole-2-methanol] | 45 | 0.66 | 
COC(=O)OC(c1cc(-c2ccc(F)cc2)c(-c2ccc(F)cc2)n1C)(C(F)(F)F)C(F)(F)F [Example 36, 4,5-Bis(4-fluorophenyl)-1-methyl-α,α-bis(trifluoromethyl)-1H-pyrrole-2-methanol, Methylcarbonate] | > 108 |  | inhibition in vivo at 25 mg/kg [2, 4]: 46%
Cn1c(C(OC(=O)c2ccccc2)(C(F)(F)F)C(F)(F)F)cc(-c2ccc(F)cc2)c1-c1ccc(F)cc1 [Example 35, 4,5-Bis(4-fluorophenyl)-1-methyl-α,α-bis(trifluoromethyl)-1H-pyrrole-2-methanol, Benzoate] | > 108 |  | inhibition in vivo at 27 mg/kg [2, 4]: 22%
CS(=O)(=O)c1ccc(-c2[nH]c(C(O)(C(F)(F)F)C(F)(F)F)cc2-c2ccc(F)cc2)cc1 [Example 13] | > 108 |  | inhibition in vivo at 27 mg/kg [2, 4]: 22%
COc1ccc(-c2cc(C(C)(O)C(F)(F)F)[nH]c2-c2ccc(OC)cc2)cc1 (stereo not drawn) [Example 31, 4,5-Bis(4-methoxyphenyl)-α-methyl-α-(trifluoromethyl)-1H-pyrrole-2-methanol] | 23 | 1.25 | 
OC(c1cc(-c2ccc(F)cc2)c(-c2ccc(F)cc2)[nH]1)C(F)(F)F (stereo not drawn) [Example 29, 4,5-Bis(4-fluorophenyl)-α-(trifluoromethyl)-1H-pyrrole-2-methanol] | > 108 | 11 | 
COc1ccc(-c2cc(C(O)C(F)(F)F)[nH]c2-c2ccc(OC)cc2)cc1 (stereo not drawn) [Example 30, 4,5-Bis(4-methoxyphenyl)-α-(trifluoromethyl)-1H-pyrrole-2-methanol] | 13.4 | 5.5 | 
OC(c1cc(-c2ccc(Cl)cc2)c(-c2ccc(Cl)cc2)[nH]1)(C(F)(F)F)C(F)(F)F [Example 1, 4,5-Bis(4-chlorophenyl)-α,α-bis(trifluoromethyl)-1H-pyrrole-2-methanol] | > 108 |  | ED50 ([2]; Rattus norvegicus, po): 7 mg/kg
